Assay [1] concerns the target T1, baculovirus-expressed ALK (Homo sapiens, UniProt Q9UM73).
T1 construct: host or cells: baculovirus expression system
In words: ALK Kinase Assay (ELISA-type, time-resolved fluorescence). To be noted: 1 μM ATP (Km level). The assay is classed as biochemical. The gist of the method: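 Plates coated with phospholipase C-γ substrate (10 μg/mL in TBS); reaction started with 30 ng/ml ALK and run 15 min at 37° C. Phosphorylated substrate detected with Eu-N1-labeled PT66 antibody. IC50 from sigmoidal variable-slope fit of percent inhibition vs log concentration.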
For orientation: An ELISA detects its analyte on a solid surface through an enzyme-linked reagent.

In assay [2] the target is T2, c-Met (cytoplasmic domain) (Homo sapiens, UniProt P08581).
T2 construct: 10 ng/mL c-Met (cytoplasmic domain, Invitrogen Corporation #PV3143); purchased Invitrogen Corporation PV3143
T2 sequence (P08581 956-1390 limits assumed): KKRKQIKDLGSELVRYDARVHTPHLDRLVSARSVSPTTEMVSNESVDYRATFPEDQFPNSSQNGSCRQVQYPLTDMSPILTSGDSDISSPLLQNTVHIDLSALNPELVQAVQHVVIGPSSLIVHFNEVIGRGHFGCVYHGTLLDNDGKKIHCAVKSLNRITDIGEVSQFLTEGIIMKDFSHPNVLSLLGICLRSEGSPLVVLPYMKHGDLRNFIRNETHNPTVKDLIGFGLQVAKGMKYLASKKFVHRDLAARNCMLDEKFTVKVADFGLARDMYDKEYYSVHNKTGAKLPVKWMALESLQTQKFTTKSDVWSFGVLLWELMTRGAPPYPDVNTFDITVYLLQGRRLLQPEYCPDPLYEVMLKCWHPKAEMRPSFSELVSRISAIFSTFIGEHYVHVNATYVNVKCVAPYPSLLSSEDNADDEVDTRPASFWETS
In words: c-Met Kinase Assay (same methods as for ALK, with modifications). The assay is classed as biochemical. The note with it: 1 μM ATP (Km level). The gist of the method: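 Europium-labeled PT66 antibody (Eu-N1) detects substrate phosphorylation on wells coated with phospholipase C-γ at 10 μg/mL. The kinase, the cytoplasmic domain of c-Met at 10 ng/mL, starts the reaction, which proceeds 15 minutes at 37° C.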

Where [3] appears, read: read-out: ALK Activity (ALK Kinase Inhibition, IC50).
[4] abbreviates: read-out: cMet Activity (c-Met Kinase Inhibition, IC50).
Setting [5] is: 30 ng/ml ALK, 37° C., 15 minutes, read-out: ALK Activity (ALK kinase inhibition, IC50 class).
Where [6] appears, read: 10 ng/mL c-Met, read-out: cMet Activity (c-Met kinase inhibition, IC50 class).

The values that follow come from patent US8148391B2 (Cephalon, Inc., priority 2006, dated 2012).

Each structure is given as a SMILES string. Like-named read-outs stand apart in the source and are kept apart here.

T1 sequence (Q9UM73 19-1620): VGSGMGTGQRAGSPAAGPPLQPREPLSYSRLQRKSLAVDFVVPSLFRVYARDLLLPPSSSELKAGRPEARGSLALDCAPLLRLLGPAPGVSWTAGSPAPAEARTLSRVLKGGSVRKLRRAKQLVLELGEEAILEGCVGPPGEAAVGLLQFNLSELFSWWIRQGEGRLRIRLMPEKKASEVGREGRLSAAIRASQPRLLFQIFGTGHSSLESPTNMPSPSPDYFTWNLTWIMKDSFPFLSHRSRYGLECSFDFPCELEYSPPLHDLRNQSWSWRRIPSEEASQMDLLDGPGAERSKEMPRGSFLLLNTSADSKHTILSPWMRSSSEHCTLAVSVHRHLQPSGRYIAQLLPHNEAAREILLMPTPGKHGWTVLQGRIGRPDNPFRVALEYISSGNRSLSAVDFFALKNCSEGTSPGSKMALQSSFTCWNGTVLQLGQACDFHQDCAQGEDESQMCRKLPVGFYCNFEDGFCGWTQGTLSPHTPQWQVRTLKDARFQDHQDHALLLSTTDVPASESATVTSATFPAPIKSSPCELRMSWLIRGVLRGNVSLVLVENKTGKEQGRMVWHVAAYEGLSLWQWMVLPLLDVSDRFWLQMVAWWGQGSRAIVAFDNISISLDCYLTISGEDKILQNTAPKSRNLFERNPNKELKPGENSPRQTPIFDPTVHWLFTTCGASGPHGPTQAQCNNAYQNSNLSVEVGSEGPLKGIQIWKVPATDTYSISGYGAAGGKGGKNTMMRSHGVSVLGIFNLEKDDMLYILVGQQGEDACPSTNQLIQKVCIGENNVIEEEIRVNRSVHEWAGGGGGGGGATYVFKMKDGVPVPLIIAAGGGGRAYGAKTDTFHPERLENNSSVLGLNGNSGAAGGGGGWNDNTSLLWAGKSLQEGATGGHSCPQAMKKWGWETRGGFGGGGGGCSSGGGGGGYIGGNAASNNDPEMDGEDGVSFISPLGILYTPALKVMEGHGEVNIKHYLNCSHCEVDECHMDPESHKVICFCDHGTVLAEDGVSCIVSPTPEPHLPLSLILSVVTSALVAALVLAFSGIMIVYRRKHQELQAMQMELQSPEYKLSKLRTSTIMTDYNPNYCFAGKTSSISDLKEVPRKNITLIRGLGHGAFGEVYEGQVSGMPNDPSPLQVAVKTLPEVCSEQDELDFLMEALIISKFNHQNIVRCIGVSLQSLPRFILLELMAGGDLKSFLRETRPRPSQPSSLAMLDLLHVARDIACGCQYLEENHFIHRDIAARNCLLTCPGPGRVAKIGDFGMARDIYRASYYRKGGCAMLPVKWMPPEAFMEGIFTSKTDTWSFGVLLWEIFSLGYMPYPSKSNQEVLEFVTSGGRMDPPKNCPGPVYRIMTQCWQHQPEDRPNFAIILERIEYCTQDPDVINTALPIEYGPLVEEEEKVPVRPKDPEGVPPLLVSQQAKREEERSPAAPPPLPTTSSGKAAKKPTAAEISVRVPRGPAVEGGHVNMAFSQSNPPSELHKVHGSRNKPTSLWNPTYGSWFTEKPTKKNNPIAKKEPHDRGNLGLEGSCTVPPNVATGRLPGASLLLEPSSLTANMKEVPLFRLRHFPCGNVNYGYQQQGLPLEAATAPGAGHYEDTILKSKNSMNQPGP

For the compound `CS(=O)(=O)N[C@@H]1CCCC[C@H]1Nc1nc(Nc2ccc3c(c2)CCC(NCC(F)(F)F)CC3)ncc1Cl` (stereo partly drawn) [Example 656, N-((1R,2R)-2-{5-Chloro-2-[7-(2,2,2-trifluoro-ethylamino)-6,7,8,9-tetrahydro-5H-benzocyclohepten-2-ylamino]-pyrimidin-4-ylamino}-cyclohexyl)-methanesulfonamide], the values for the IC50 in assay [1] (setting [3]) and in assay [2] (setting [4]) were under 100 nM and 100 to 1000 nM, respectively.
For `CCN1CCc2ccc(OC)c(Nc3ncc(Cl)c(Nc4ccc(N5CCOCC5)cc4OC)n3)c2CC1=O` [Example 1133, 9-[5-Chloro-4-(2-methoxy-4-morpholin-4-yl-phenylamino)-pyrimidin-2-ylamino]-3-ethyl-8-methoxy-1,3,4,5-tetrahydro-benzo[d]azepin-2-one], the IC50 in assay [1] (setting [5]) is 1000 to 10000 nM; in assay [2] (setting [6]), over 10000 nM.
On to `Cn1ccnc1-c1ccccc1Nc1nc(Nc2ccc3c(c2)CCC(NCC(F)(F)F)CC3)ncc1Cl` (stereo not drawn) [Example 655, 5-Chloro-N*4*-[2-(1-methyl-1H-imidazol-2-yl)-phenyl]-N*2*-[7-(2,2,2-trifluoro-ethylamino)-6,7,8,9-tetrahydro-5H-benzocyclohepten-2-yl]-pyrimidine-2,4-diamine], for which the results for the IC50 in assay [1] (setting [3]) and in assay [2] (setting [4]) were under 100 nM and 100 to 1000 nM, respectively.
In the case of `COCCN1CCc2ccc(Nc3ncc(Cl)c(Nc4ccccc4-c4ncccc4C)n3)cc2CC1` [Example 972, 5-Chloro-N*2*-[3-(2-methoxy-ethyl)-2,3,4,5-tetrahydro-1H-benzo[d]azepin-7-yl]-N*4*-[2-(3-methyl-pyridin-2-yl)-phenyl]-pyrimidine-2,4-diamine], the IC50 in assay [1] (setting [3]) is under 100 nM; in assay [2] (setting [4]), 100 to 1000 nM.
With `COc1cc2c(cc1Nc1ncc(Cl)c(Nc3ccccc3S(=O)(=O)N3CCN(C)CC3)n1)CCN(CC(=O)N(C)C)CC2` [Example 837, 2-(7-{5-Chloro-4-[2-(4-methyl-piperazine-1-sulfonyl)-phenylamino]-pyrimidin-2-ylamino}-8-methoxy-1,2,4,5-tetrahydro-benzo[d]azepin-3-yl)-N,N-dimethyl-acetamide], the IC50 in assay [1] (setting [3]) is under 100 nM; in assay [2] (setting [4]) it was over 10000 nM.
Taken in the same sequence, the figures for `COCCNC1CCc2cc(Nc3ncc(Cl)c(Nc4c(OC)ccc5c4CN(S(C)(=O)=O)CC(=O)N5)n3)c(OC)cc2CC1` (stereo not drawn) [Example 750, 6-{5-Chloro-2-[3-methoxy-7-(2-methoxy-ethylamino)-6,7,8,9-tetrahydro-5H-benzocyclohepten-2-ylamino]-pyrimidin-4-ylamino}-4-methanesulfonyl-7-methoxy-1,3,4,5-tetrahydro-benzo[e][1,4]diazepin-2-one] were 1000 to 10000 nM and over 10000 nM.
For `CC1(C)CCC(=O)Nc2ccc(Nc3ncc(Cl)c(N[C@@H]4CCCC[C@H]4NS(C)(=O)=O)n3)cc21` [Example 383, N-{(1R,2R)-2-[5-Chloro-2-(5,5-dimethyl-2-oxo-2,3,4,5-tetrahydro-1H-benzo[b]azepin-7-ylamino)-pyrimidin-4-ylamino]-cyclohexyl}-methanesulfonamide], the IC50 in assay [1] (ALK kinase inhibition, read-out: ALK Activity) is under 100 nM; in assay [2] (c-Met kinase inhibition, read-out: cMet Activity) it was 1000 to 10000 nM.
In the case of `C#CCNC(=O)c1cccc(F)c1Nc1nc(Nc2ccc3c(c2)OCCCN3CC)ncc1Cl` [Example 1407, 2-[5-Chloro-2-(9-ethyl-6,7,8,9-tetrahydro-5-oxa-9-aza-benzocyclohepten-3-ylamino)-pyrimidin-4-ylamino]-3-fluoro-N-prop-2-ynyl-benzamide], the figures for the IC50 in assay [1] (setting [5]) and in assay [2] (setting [6]) were 100 to 1000 nM and under 100 nM, respectively.
Taken in the same sequence, the figures for `COc1cc2c(cc1Nc1ncc(Cl)c(Nc3ccccc3S(=O)(=O)N3CCCC3)n1)CCN(CC(=O)N(C)C)CC2` [Example 1181, 2-(7-{5-Chloro-4-[2-(pyrrolidine-1-sulfonyl)-phenylamino]-pyrimidin-2-ylamino}-8-methoxy-1,2,4,5-tetrahydro-benzo[d]azepin-3-yl)-N,N-dimethyl-acetamide] were under 100 nM and 1000 to 10000 nM.
